The results in this text go back to patent US6410566B1, “Cyclic amine derivatives and their use as drugs” (Teijin Limited, priority 2000, dated 2002).

Assay [1] deals with T1, binding of human MCP-1 to THP-1 cells (Homo sapiens, UniProt P41597).
T1 construct: endogenous in cells; host or cells: THP-1 (human monocytic leukemia cell line), whole cells
T1 sequence (P41597 1-360 isoform P41597-2): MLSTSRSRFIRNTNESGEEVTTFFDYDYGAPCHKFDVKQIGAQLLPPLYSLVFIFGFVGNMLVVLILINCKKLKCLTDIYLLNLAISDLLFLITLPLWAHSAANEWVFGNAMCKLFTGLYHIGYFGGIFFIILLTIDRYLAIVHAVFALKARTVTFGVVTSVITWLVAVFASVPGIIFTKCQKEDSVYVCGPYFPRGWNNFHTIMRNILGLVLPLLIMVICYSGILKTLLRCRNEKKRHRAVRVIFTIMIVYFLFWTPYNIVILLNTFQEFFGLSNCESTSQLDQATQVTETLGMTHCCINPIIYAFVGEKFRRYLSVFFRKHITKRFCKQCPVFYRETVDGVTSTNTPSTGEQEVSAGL
Put plainly: Inhibition of binding of [125I]-labeled baculovirus expressed human MCP-1 to THP-1 cells (Method 2). The conditions noted are these: Method 2, at 1 μM. An excerpt: 1. Construction of recombinant baculovirus carrying the human MCP-1 gene
Based on the previously published human MCP-1 gene sequence (for example T. Yoshirnura et al., FEBS Lett., 1989, 244, 487-493), two synthetic DNA primers (5′-[…]-3′ and 5′-[…]-3′) flanked by restriction enzyme sites were used to amplify a DNA fragment from cDNA derived from human endothelial cells (purchased from Kurabow Co.); the amplified fragment was cut with the restriction enzymes (PstI and XbaI), ligated into a transfer vector pVL1393 (Invitrogen Co.), and the resulting vector was co-transfected along with infectious baculovirus into Sf-9 insect cells and the supernatant was plaque assayed to yield human MCP-1 gene baculovirus recombinant.
2. Synthesis of [^125I]-labeled human MCP-1 expressed in baculovirus
Using the method of K. Ishii et al. (Biochem Biophys Research Communications, 1995, 206, 955-961), 5×10^6 Sf-6 insect cells was infected with 5×10^7 PFU (plaque forming units) of the above human MCP-1 recombinant baculovirus and cultured for 7 days in Ex-Cell 401 medium. The culture supernatant was affinity purified using a heparin Sepharose column (Pharmacia Co.) and then further purified using reverse phase HPLC (Vydac C18 column) to prepare purified human MCP-1. The purified human MCP-1 was protein labeled by Amersham Co. using the Bolton Hunter method to yield [^125I]-labeled baculovirus expressed human MCP-1 (specific activity 2000 Ci/mmol).
3-2. Measurement of inhibition of binding of [^125I]-labeled baculovirus expressed human MCP-1 to THP-1 cells (Method 2)
Human monocytic leukemia cell line THP-1 was suspended in assay buffer (50 mM HEPES, pH 7.4, 1.0 mM CaCl2, 5.0% mM MgCl2, 0.5% BSA) to give a cell suspension of a concentration of 1×10^7 cells/mL. The test compound was diluted in the assay buffer and used as the test compound solution. [^125I]-labeled human MCP-1 described above was diluted in assay buffer to 1 mCi/mL and used as the labeled ligand solution. In a 96 well filter plate (Millipore Co.), 25 μL of test compound solution, 25 μL of labeled ligand solution and 50 μL of cell suspension were aliquoted into each well in this order, stirred (total reaction volume 100 μL), and incubated for one hour at 18° C.
After the reaction, the reaction solution was filtered, and the filter was washed twice with 200 μL of cold PBS (200 μL of cold PBS was added and then filtered). The filter was air-dried and 25 μL of liquid scintillator was added into each well. The radioactivity retained by the cells on the filter were measured using TopCount (Packard Instrument Co.).
To calculate the ability of test compound to inhibit binding of human MCP-1 to THP-1 cells, non-specific binding determined by adding 100 ng of unlabeled human MCP-1 in place of the test compound was subtracted, while the counts with no test compound added was taken as 100%.
Inhibition (%)={1−(A−B)/(C−B)}×100
(A, counts with test compound added; B, counts with 100 ng of unlabeled human MCP-1 added; C, counts with [^125I]-labeled human MCP-1 added).

For another assay, the system named is THP-1 cells. Kind of assay: Inhibition of cell chemotaxis caused by MCP-1. Format: cell-based. The conditions noted are these: Homo sapiens, MCP-1 20 ng/mL, read-out: inhibition of cell migration IC50. On the procedure: Measurement of Inhibition of Cell Chemotaxis
In order to determine the inhibition of cell chemotaxis by the compounds of this invention, we measured cell chemotaxis caused by monocyte chemotactic factor MCP-1 using the human monocytic leukemia cell line THP-1 as the chemotactic cell according to the method of Fall et al. (J. Immunol. Methods, 190, 33,239-247). 2×10^6 cells/mL of THP-1 cells (suspended in RPMI-1640 (Flow Laboratories Co.)+10% FCS) was placed in the upper chamber (200 μL) of a 96 well micro-chemotaxis chamber (Neuroprobe; registered tradename), and human recombinant MCP-1 in a same solution (Peprotech Co.) at a final concentration of 20 ng/mL was placed in the lower chamber, with a polycarbonate filter (PVP-free, Neuroprobe; registered tradename) placed between the two chambers. These were incubated at 37° C. for 2 hr in 5% CO2.
The filter was removed, and the cells which had migrated to the underside of the filter was fixed, stained using Diff Quick (Kokusai Shiyaku Co.) and then quantitated using a plate reader (Molecular Device Co.) at a wavelength of 550 nm to determine the index of cell migration as a mean of 3 wells. In addition, test compounds were placed in the upper and lower chambers along with THP-1 and MCP-1, respectively, and the inhibition of cell migration (inhibition IC50 (μM)) was determined.

Assay [2] deals with T1, binding of human MCP-1 to THP-1 cells. Put plainly: Inhibition of binding of [125I]-labeled baculovirus expressed human MCP-1 to THP-1 cells (Method 1). The conditions noted are these: for inhibition at 10 µM: Method 1, at 10 μM. An excerpt:
Measurement of Inhibition of MCP-1 Binding to THP-1 Cells 1. Construction of recombinant baculovirus carrying the human MCP-1 gene Based on the previously published human MCP-1 gene sequence (for example T. Yoshirnura et al., FEBS Lett., 1989, 244, 487-493), two synthetic DNA primers ([NT] and [NT]) flanked by restriction enzyme sites were used to amplify a DNA fragment from cDNA derived from human endothelial cells (purchased from Kurabow Co.); the amplified fragment was cut with the restriction enzymes (PstI and XbaI), ligated into a transfer vector pVL1393 (Invitrogen Co.), and the resulting vector was co-transfected along with infectious baculovirus into Sf-9 insect cells and the supernatant was plaque assayed to yield human MCP-1 gene baculovirus recombinant. […] Using the method of K. Ishii et al. […] The culture supernatant was affinity purified using a heparin Sepharose column (Pharmacia Co.) and then further purified using reverse phase HPLC (Vydac C18 column) to prepare purified human MCP-1. […] 3-1. […] The test. compound was diluted in the assay buffer and used as the test compound solution. [^125I]-labeled human MCP-1 described above was diluted in assay buffer to 1 mCi/mL and used as the labeled ligand solution. In a 96 well filter plate (Millipore Co.), 25 μL of test compound solution, 25 μL of labeled ligand solution and 50 μL of cell suspension were aliquoted into each well in this order, stirred (total reaction volume 100 μL), and incubated for one hour at 18° C. After the reaction, the reaction solution was filtered, and the filter was washed twice with 200 μL of cold PBS (200 μL of cold PBS was added and then filtered). The filter was air-dried and 25 μL of liquid sciatillator was added into each well. The radioactivity retained by the cells on the filter were measured using TopCount (Packard Instrument Co.). To calculate the ability of test compound to inhibit binding of human MCP-1 to THP-1 cells, non-specific binding determined by adding 100 ng of unlabeled human MCP-1 in place of the test compound was subtracted, while the counts with no test compound added was taken as 100%. Inhibition (%)=(1-(A-B)/(C-B))×100 (A, counts with test compound added; B, counts with 100 ng of unlabeled human MCP-1 added; C, counts with [^125I]-labeled human MCP-1 added).

For orientation: inhibition means the drop in the measured response relative to a control, in per cent.

In assay [1], `Cc1ccc(CN2CCC(CNC(=O)CNC(=O)c3cc(F)c(F)cc3N)CC2)cc1N` [Compound No. 2114, 4-[{N-(2-Amino-4,5-difluorobenzoyl)glycyl}aminomethyl]-1-(3-amino-4-methylbenzyl)piperidine] yielded an inhibition at 1 µM of more than 80%. The IC50 in the assay on THP-1 cells is less than 100 nM.

As to `Nc1cc(CN2CC[C@@H](NC(=O)CNC(=O)c3cc(C(F)(F)F)ccc3N)C2)ccc1Cl` [Compound No. 2132, (R)-1-(3-Amino-4-chlorobenzyl)-3-[{N-(2-amino-5-trifluoromethylbenzoyl)glycyl}amino]pyrrolidine], in assay [1], the inhibition at 1 µM is more than 80%. Also, in the assay with THP-1 cells, the IC50 was less than 100 nM. As for `Nc1cc(CN2CCC(CNC(=O)CNC(=O)c3cc(F)c(F)cc3N)CC2)ccc1O` [Compound No. 2141, 4-[{N-(2-amino-4,5-difluorobenzoyl)glycyl}aminomethyl]-1-(3-amino-4-hydroxybenzyl)piperidine], the IC50 with THP-1 cells was less than 100 nM. For `Cc1noc(C)c1CN1CC[C@@H](NC(=O)CNC(=O)c2cc(F)cc(C(F)(F)F)c2)C1` [compound 1191, (R)-3-[N-(3-Fluoro-5(trifluoromethyl)benzoyl)glycyl]amino-1-(3,5-dimethylisoxazol-4-ylmethyl)pyrrolidine], the inhibition at 1 µM in assay [1] is more than 80%. The IC50 with THP-1 cells was less than 100 nM. In assay [1], `COc1ccc(CN2CC[C@@H](NC(=O)CNC(=O)c3cc(OC(F)(F)F)ccc3N)C2)cc1O` [Compound No. 1896, (R)-3-[{N-(2-Amino-5-trifluoromethoxybenzoyl)glycyl}amino]-1-(3-hydroxy-4-methoxybenzyl)pyrrolidine] returned an inhibition at 1 µM of more than 80%. For the same compound, the IC50 in the assay with THP-1 cells was less than 100 nM. The compound `C=Cc1ccc(CN2CC[C@@H](NC(=O)CNC(=O)c3cc(C(F)(F)F)ccc3N)C2)cc1` [Compound No. 1701, (R)-3-[{N-(2-Amino-5-(trifluoromethyl)benzoyl)glycyl}amino]-1-(4-vinylbenzyl)pyrrolidine] registered an inhibition at 1 µM in assay [1] of more than 80%. Besides, in the assay on THP-1 cells, the IC50 was less than 100 nM. As to `CNc1cc(CN2CC[C@@H](NC(=O)CNC(=O)c3cc(C(F)(F)F)ccc3N)C2)ccc1O` [Compound No. 2158, (R)-3-[{N-(2-Amino-5-trifluoromethylbenzoyl)glycyl}amino]-1-(3-methylamino-4-hydroxybenzyl)pyrrolidine], the IC50 with THP-1 cells was less than 100 nM. In assay [1], `Nc1cc(Cl)ccc1CN1CC[C@@H](NC(=O)CNC(=O)c2cc(OC(F)(F)F)ccc2N)C1` [Compound No. 1921, (R)-3-[{N-(2-Amino-5-trifluoromethoxybenzoyl)glycyl}amino]-1-(2-amino-4-chlorobenzyl)pyrrolidine] yielded an inhibition at 1 µM of more than 80%. The IC50 with THP-1 cells is less than 100 nM. Turning to `O=C(CNC(=O)c1cccc(C(F)(F)F)c1)NCC1CCN(Cc2ccc(NC(=O)c3ccccc3)cc2)CC1` [Compound No. 519, 1-{4-(Benzoylamino)benzyl}-4-[{N-(3-(trifluoromethyl)benzoyl)glycyl}aminomethyl]piperidine], in assay [2], the inhibition at 10 µM was in the range of 20 to 50%. For the compound `O=C(CNC(=O)c1cc(C(F)(F)F)cc(C(F)(F)F)c1)N[C@H]1CCN(Cc2ccc(Cl)cc2)C1` [compound 5, (S)-3-[N-{3,5-Bis (trifluoromethyl)benzoyl}glycyl]amino-1-(4-chlorobenzyl)pyrrolidine], the inhibition at 100 µM in assay [2] (Method 1, at 100 μM) was more than 80%.

Compound `CN(C)c1ccc(CN2CCC(CNC(=O)CNC(=O)c3cccc(C(F)(F)F)c3)CC2)cc1` [Compound No. 937, 1-{4-(Dimethylamino)benzyl}-4-[{N-(3-(trifluoromethyl)benzoyl)glycyl}aminomethyl]piperidine] showed an inhibition at 10 µM in assay [2] of 50 to 80%. Consider `O=C(CNC(=O)c1cccc(C(F)(F)F)c1)N[C@H]1CCN(Cc2ccccc2)C1` [Compound No. 239, (S)-1-Benzyl-3-[N-{3-(trifluoromethyl)benzoyl}glycyl]aminopyrrolidine], for which the inhibition at 10 µM in assay [2] fell in the range of 20 to 50%.

In assay [2], `O=C(CNC(=O)c1ccccc1)NCC1CCCN(Cc2ccc(Cl)cc2)C1` (stereo not shown) [Compound No. 434, 3-{(N-Benzoylglycyl)amino}methyl-1-(4-chlorobenzyl)piperidine] returned an inhibition at 10 µM of 50 to 80%.
